These results are taken from US9328106B2, “Cyclic ether pyrazol-4-yl-heterocyclyl-carboxamide compounds and methods of use” (Genentech, Inc., priority 2012, dated 2016).

One test concerns BaF3 parental cells. Put plainly: In vitro cell proliferation, BaF3 parental line + IL3.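 Further: BaF3 parental cells are murine IL-3 dependent pro-B cells grown with 2 ng/mL mIL-3, 384-well format, viability read by luminescence.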 The test is classed as cell-based, murine. The note with it: Mus musculus, BaF3, BaF3 parental, mIL-3, incubated overnight, CELL TITER GLO; read-out: Prolif BaF3 IL3 (IC50).
Test [1] concerns MM1.S (multiple myeloma) cells. Put plainly: In vitro cell proliferation, MM1.S multiple myeloma cells.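 Further: cells cultured in RPMI with 10% FBS and 2 mM L-Glutamine, seeded in 384-well plates, exposed to compound, cell viability measured by luminescence after CellTiter-Glo addition.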 The test is classed as cell-based. As to conditions: Homo sapiens, MM1.S, 72 h, MM1.S cells, 72 hours, CELL TITER GLO; read-out: Prolif MM1S ATP (EC50). In general terms: Cellular ATP, detected with luciferase, serves as a proxy for viable cell number.
The test system of a further test is BaF3 PIM1 cells. The test is described as follows: In vitro cell proliferation, BaF3 transfected with PIM1.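 Further: murine IL-3-dependent pro-B BaF3 cells transfected with PIM1, compound exposure overnight at 37 °C under 5% CO2, viability read as luminescence.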 It counts as cell-based, murine. The note with it: Mus musculus.
Another test has as its target PIM1 (Homo sapiens (Human), UniProt P11309). Put plainly: biochemical. The test is classed as biochemical. As to conditions: 20 pM PIM1, 1 μM FAM-peptide, 10 μM ATP, 90 minutes at room temperature; read-out: PIM1 LC3K (KI).
The mark [2] stands for this setting: BaF3 PIM1 cells, incubated overnight, CELL TITER GLO, read-out: Prolif BaF3 PIM1 (IC50).
The mark [3] stands for this setting: BaF3, read-out: Prolif BaF3 PIM1 (IC50), BaF3 PIM1 cells, incubated overnight, CELL TITER GLO.

Read-outs that look alike come from different tables or passages of the source. Some results are limits rather than exact numbers.

In general, IC50 refers to the point on the concentration scale where inhibition reaches its midpoint. The EC50 is the concentration needed to bring the measured effect to its halfway point. A word on the Ki: it is the equilibrium dissociation constant of an inhibitor or competing ligand from its target.

PIM1, sequence (P11309 whole entry): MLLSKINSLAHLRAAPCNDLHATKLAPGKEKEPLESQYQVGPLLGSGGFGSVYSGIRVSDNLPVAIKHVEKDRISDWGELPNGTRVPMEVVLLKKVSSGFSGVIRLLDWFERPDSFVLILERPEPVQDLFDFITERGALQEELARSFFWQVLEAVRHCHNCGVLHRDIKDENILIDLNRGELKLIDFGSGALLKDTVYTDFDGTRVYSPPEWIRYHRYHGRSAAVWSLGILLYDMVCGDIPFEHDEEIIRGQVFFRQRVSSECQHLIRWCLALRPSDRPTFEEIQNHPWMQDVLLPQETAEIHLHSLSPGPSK

`C[C@H]1O[C@@H](c2c(NC(=O)c3ccc(F)c(-c4c(F)cccc4F)n3)cnn2C)C[C@@H](N)[C@]1(C)O` (single isomer, unassigned) [Example 343]: the values for the IC50 in the test on BaF3 parental cells and in the test with BaF3 PIM1 cells (setting [2]) were 12800 nM and 342 nM, respectively. Further, the EC50 in test [1] stood at 781 nM.

For the compound `C[C@H]1O[C@@H](c2c(NC(=O)c3nc(-c4c(F)cccc4F)sc3N)cnn2C)C[C@@H](N)[C@]1(C)O` (single isomer, unassigned) [Example 345], the 50% inhibitory concentration (IC50) was > 25000 nM with BaF3 parental cells and 6800 nM in the test with BaF3 PIM1 cells (setting [2]). Also, in test [1], the EC50 is > 25000 nM. Take `Cn1ncc(NC(=O)c2nc(-c3c(F)cccc3F)sc2N)c1[C@]12CC[C@H](O1)[C@@H](N)CC2` [Example 115, 5-amino-N-(5-((1S,4S,5S)-4-amino-8-oxabicyclo[3.2.1]octan-1-yl)-1-methyl-1H-pyrazol-4-yl)-2-(2,6-difluorophenyl)thiazole-4-carboxamide]: the concentration for half-maximal inhibition (IC50) with BaF3 PIM1 cells (setting [3]) came to 19.2 nM.

As for `Cn1ncc(NC(=O)c2nc(-c3c(F)cccc3F)sc2N)c1[C@@]12CC[C@H](N)[C@@H](CC1)O2` [Example 117, 5-amino-N-(5-((1R,4S,5R)-4-amino-8-oxabicyclo[3.2.1]octan-1-yl)-1-methyl-1H-pyrazol-4-yl)-2-(2,6-difluorophenyl)thiazole-4-carboxamide], the EC50 in test [1] stood at 122 nM. Moreover, the IC50 in the test with BaF3 PIM1 cells (setting [3]) was 30.7 nM. On to `Cc1nn(C)c(F)c1-c1nc(C(=O)Nc2cnn(C)c2[C@@H]2CC[C@@H](N)[C@H](F)CO2)cs1` [Example 286, N-(5-((2S,5R,6S)-5-amino-6-fluorooxepan-2-yl)-1-methyl-1H-pyrazol-4-yl)-2-(5-fluoro-1,3-dimethyl-1H-pyrazol-4-yl)thiazole-4-carboxamide], for which the IC50 in the test with BaF3 parental cells stood at 11300 nM; with BaF3 PIM1 cells (setting [2]), 947 nM. For the same compound, in test [1], the concentration giving a half-maximal response (EC50) is 12600 nM. For `Cn1ncc(NC(=O)c2csc(-c3n[nH]c4c3CCCC4)n2)c1[C@@H]1CC[C@@H](N)[C@H](F)CO1` [Example 374, N-(5-((2S,5R,6S)-5-amino-6-fluorooxepan-2-yl)-1-methyl-1H-pyrazol-4-yl)-2-(4,5,6,7-tetrahydro-1H-indazol-3-yl)thiazole-4-carboxamide], in the test on BaF3 parental cells, the IC50 is 13100 nM. In addition, the Ki at PIM1 turned out to be 0.023 nM.

For the compound `CN(C)C(=O)c1ccc(F)c(-c2nc(C(=O)Nc3cnn(C)c3[C@@H]3CC[C@@H](N)[C@H](F)CO3)cs2)c1F` [Example 376, N-[5-[(2S,5R,6S)-5-amino-6-fluoro-oxepan-2-yl]-1-methyl-pyrazol-4-yl]-2-[3-(dimethylcarbamoyl)-2,6-difluoro-phenyl]thiazole-4-carboxamide], the Ki at PIM1 amounted to 0.727 nM. The same measure, in the same setting: with `COc1ccc(C(F)F)c(F)c1-c1nc(C(=O)Nc2cnn(C)c2[C@@H]2CC[C@@H](N)[C@H](F)CO2)cs1` [Example 378, N-[5-[(2S,5R,6S)-5-amino-6-fluoro-oxepan-2-yl]-1-methyl-pyrazol-4-yl]-2-[3-(difluoromethyl)-2-fluoro-6-methoxy-phenyl]thiazole-4-carboxamide] the figure was 1.48 nM. The same measure, in the same setting: to `Cn1ncc(NC(=O)c2csc(-c3c(F)cccc3CO)n2)c1[C@@H]1CC[C@@H](N)[C@H](F)CO1` [Example 382, N-[5-[(2S,5R,6S)-5-amino-6-fluoro-oxepan-2-yl]-1-methyl-pyrazol-4-yl]-2-[2-fluoro-6-(hydroxymethyl)phenyl]thiazole-4-carboxamide] belongs 7.2 nM; to `CC(=O)Nc1ccc(-c2nc(C(=O)Nc3cnn(C)c3[C@@H]3CC[C@@H](N)[C@H](F)CO3)cs2)cn1` [Example 386, 2-(6-acetamido-3-pyridyl)-N-[5-[(2S,5R,6S)-5-amino-6-fluoro-oxepan-2-yl]-1-methyl-pyrazol-4-yl]thiazole-4-carboxamide], 0.389 nM; to `Cn1ncc(NC(=O)c2csc(-n3cccn3)n2)c1[C@@H]1CC[C@@H](N)[C@H](F)CO1` [Example 388, N-(5-((2S,5R,6S)-5-amino-6-fluorooxepan-2-yl)-1-methyl-1H-pyrazol-4-yl)-2-(1H-pyrazol-1-yl)thiazole-4-carboxamide], 0.157 nM. On the same count and under the same terms, with `Cn1ncc(NC(=O)c2csc(-n3ncc4c3CCCC4)n2)c1[C@@H]1CC[C@@H](N)[C@H](F)CO1` [Example 389, N-(5-((2S,5R,6S)-5-amino-6-fluorooxepan-2-yl)-1-methyl-1H-pyrazol-4-yl)-2-(4,5,6,7-tetrahydro-1H-indazol-1-yl)thiazole-4-carboxamide] the figure was 0.02 nM. As to `Cn1ncc(NC(=O)c2csc(-n3cc4c(n3)CCCC4)n2)c1[C@@H]1CC[C@@H](N)[C@H](F)CO1` [Example 390, N-(5-((2S,5R,6S)-5-amino-6-fluorooxepan-2-yl)-1-methyl-1H-pyrazol-4-yl)-2-(4,5,6,7-tetrahydro-2H-indazol-2-yl)thiazole-4-carboxamide], on PIM1, the inhibitory constant (Ki) was found to be 0.267 nM. `Cn1ncc(NC(=O)c2csc(-c3c(F)cc4c(c3F)OCC4)n2)c1[C@@H]1CC[C@@H](N)[C@H](F)CO1` [Example 391, N-(5-((2S,5R,6S)-5-amino-6-fluorooxepan-2-yl)-1-methyl-1H-pyrazol-4-yl)-2-(5,7-difluoro-2,3-dihydrobenzofuran-6-yl)thiazole-4-carboxamide]: the inhibitory constant (Ki) at PIM1 was found to be 0.024 nM.

Take `Cc1cc(F)c(-c2nc(C(=O)Nc3cnn(C)c3[C@@H]3CC[C@@H](N)[C@H](F)CO3)ccc2F)c(F)c1` [Example 392, N-(5-((2S,5R,6S)-5-amino-6-fluorooxepan-2-yl)-1-methyl-1H-pyrazol-4-yl)-6-(2,6-difluoro-4-methylphenyl)-5-fluoropicolinamide]: the Ki on PIM1 is 0.041 nM. Still for that read-out and setting: with `Cn1ncc(NC(=O)c2csc(-c3ccc(C4(C)COC4)cc3F)n2)c1[C@@H]1CC[C@@H](N)[C@H](F)CO1` [Example 393, N-(5-((2S,5R,6S)-5-amino-6-fluorooxepan-2-yl)-1-methyl-1H-pyrazol-4-yl)-2-(2-fluoro-4-(3-methyloxetan-3-yl)phenyl)thiazole-4-carboxamide] the figure was 0.003 nM; with `Cn1ncc(NC(=O)c2csc(-c3c(F)cc(C(C)(F)F)cc3F)n2)c1[C@@H]1CC[C@@H](N)[C@H](F)CO1` [Example 394, N-(5-((2S,5R,6S)-5-amino-6-fluorooxepan-2-yl)-1-methyl-1H-pyrazol-4-yl)-2-(4-(1,1-difluoroethyl)-2,6-difluorophenyl)thiazole-4-carboxamide], 0.018 nM. The same measure, in the same setting: with `Cn1ncc(NC(=O)c2csc(-n3ncc4ccccc43)n2)c1[C@@H]1CC[C@@H](N)[C@H](F)CO1` [Example 395, N-(5-((2S,5R,6S)-5-amino-6-fluorooxepan-2-yl)-1-methyl-1H-pyrazol-4-yl)-2-(1H-indazol-1-yl)thiazole-4-carboxamide] the figure was 0.085 nM. The same measure, in the same setting: to `Cn1ncc(NC(=O)c2csc(-n3cc4ccccc4n3)n2)c1[C@@H]1CC[C@@H](N)[C@H](F)CO1` [Example 396, N-(5-((2S,5R,6S)-5-amino-6-fluorooxepan-2-yl)-1-methyl-1H-pyrazol-4-yl)-2-(2H-indazol-2-yl)thiazole-4-carboxamide] belongs 0.002 nM; to `Cn1ncc(NC(=O)c2ccc(F)c(-c3c(F)cccc3F)n2)c1[C@@H]1CC[C@@H](N)[C@H](F)CO1` [Example 397, N-[5-[(2S,5R,6S)-5-amino-6-fluoro-oxepan-2-yl]-1-methyl-pyrazol-4-yl]-6-(2,6-difluorophenyl)-5-fluoro-pyridine-2-carboxamide], 0.016 nM.

Regarding `Cc1cccnc1-c1nc(C(=O)Nc2cnn(C)c2[C@@H]2CC[C@@H](N)[C@H](F)CO2)c(N)s1` [Example 398, 5-amino-N-[5-[(2S,5R,6S)-5-amino-6-fluoro-oxepan-2-yl]-1-methyl-pyrazol-4-yl]-2-(3-methyl-2-pyridyl)thiazole-4-carboxamide], the inhibition constant Ki at PIM1 amounted to 0.004 nM. As for `Cn1ncc(NC(=O)c2csc(-c3cnc4cccnc4c3)n2)c1[C@@H]1CC[C@@H](N)[C@H](F)CO1` [Example 399, N-[5-[(2S,5R,6S)-5-amino-6-fluoro-oxepan-2-yl]-1-methyl-pyrazol-4-yl]-2-(1,5-naphthyridin-3-yl)thiazole-4-carboxamide], the Ki on PIM1 stood at 0.21 nM. On the same count and under the same terms, to `Cn1ncc(NC(=O)c2csc(-c3c(F)ccc4[nH]ccc34)n2)c1[C@@H]1CC[C@@H](N)[C@H](F)CO1` [Example 400, N-[5-[(2S,5R,6S)-5-amino-6-fluoro-oxepan-2-yl]-1-methyl-pyrazol-4-yl]-2-(5-fluoro-1H-indol-4-yl)thiazole-4-carboxamide] belongs 0.011 nM.

As to `Cn1ncc(NC(=O)c2csc(-c3cccc(OCc4ccccc4)c3)n2)c1[C@@H]1CC[C@@H](N)[C@H](F)CO1` [Example 401, N-[5-[(2S,5R,6S)-5-amino-6-fluoro-oxepan-2-yl]-1-methyl-pyrazol-4-yl]-2-(3-benzyloxyphenyl)thiazole-4-carboxamide], at PIM1, the inhibitory constant (Ki) amounted to 0.447 nM.

As for `Cn1ncc(NC(=O)c2csc(-c3cccc4c3cnn4C)n2)c1[C@@H]1CC[C@@H](N)[C@H](F)CO1` [Example 402, N-[5-[(2S,5R,6S)-5-amino-6-fluoro-oxepan-2-yl]-1-methyl-pyrazol-4-yl]-2-(1-methylindazol-4-yl)thiazole-4-carboxamide], the Ki on PIM1 was determined as 0.117 nM. Still for that read-out and setting: to `Cn1ncc(NC(=O)c2csc(-c3cccc4cnn(C)c34)n2)c1[C@@H]1CC[C@@H](N)[C@H](F)CO1` [Example 403, N-[5-[(2S,5R,6S)-5-amino-6-fluoro-oxepan-2-yl]-1-methyl-pyrazol-4-yl]-2-(1-methylindazol-7-yl)thiazole-4-carboxamide] belongs 5.91 nM.
